Series [1] in a line: Cmax in mouse hippocampus at 0.625 mg/kg, ip by LC/ESI-MS/MS analysis. The format is ADME, organism-based. Further details: dose 0.625 mg/kg, route ip.
Series [2] can be described thus: Permeability of the compound across apical to basolateral side in human Caco-2 cells at pH 6.5. The format is ADME, cell-based. The following applies: Caco-2, pH 6.5, read-out: Papp.
A short description of series [3]: Permeability of the compound across apical to basolateral side in human Caco-2 cells at pH 7.4. The conditions noted are these: Caco-2, pH 7.4, read-out: Papp. The format is ADME, cell-based.
The nature of series [4]: Ratio of drug concentration in Hippocampus to plasma in mouse at 0.625 mg/kg, ip by LC/ESI-MS/MS analysis. The format is ADME, organism-based. The conditions noted are these: hippocampus and plasma.
Series [5] addresses 5-hydroxytryptamine receptor 2A (Homo sapiens, UniProt P28223). Kind of series: Binding affinity to 5HT-2A receptor (unknown origin).
Series [6] has as its target T1, 5-hydroxytryptamine receptor 1A (Homo sapiens, UniProt P08908).
T1 sequence (P08908 whole entry): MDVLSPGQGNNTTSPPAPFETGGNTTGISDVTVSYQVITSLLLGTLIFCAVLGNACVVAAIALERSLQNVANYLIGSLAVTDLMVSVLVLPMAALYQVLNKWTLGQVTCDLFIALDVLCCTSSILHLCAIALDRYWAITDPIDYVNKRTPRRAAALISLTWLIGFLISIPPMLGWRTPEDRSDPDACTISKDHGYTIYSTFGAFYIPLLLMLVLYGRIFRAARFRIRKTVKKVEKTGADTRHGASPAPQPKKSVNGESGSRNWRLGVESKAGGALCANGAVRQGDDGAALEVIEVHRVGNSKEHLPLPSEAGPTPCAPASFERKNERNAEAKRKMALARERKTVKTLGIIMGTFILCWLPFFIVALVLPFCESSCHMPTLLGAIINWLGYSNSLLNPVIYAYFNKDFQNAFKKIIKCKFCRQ
Kind of series: Displacement of [3H]-[…] from human 5-HT1A receptor expressed in CHO-K1 cells membrane by scintillation counter analysis. The format is cell membranes.

Series [7] has as its target 5-hydroxytryptamine receptor 7 (Homo sapiens, UniProt P34969). Kind of series: Displacement of [3H]-5-CT from human 5-HT7 receptor expressed in CHO-K1 cells membrane by scintillation counter analysis. It is filed as cell membranes.
A short description of series [8]: AUC(0 to t) in mouse striatum at 0.625 mg/kg, ip by LC/ESI-MS/MS analysis. It is filed as ADME, organism-based. Further details: dose 0.625 mg/kg, route ip.
Series [9] is described as follows: Metabolic stability in human liver microsomes assessed as half life.
Series [10] in a line: AUC(0 to t) in mouse frontal cortex at 0.625 mg/kg, ip by LC/ESI-MS/MS analysis. It is filed as ADME, organism-based. Further details: dose 0.625 mg/kg, route ip.
The next series has as its system Mus musculus. Kind of series: Antipsychotic activity in CD-1 mouse assessed as inhibition of amphetamine-stimulated locomotor activity at 5 mg/kg, ip administered 30 mins prior to amphetamine stimulation and measured after 30 mins. The format is functional, organism-based. The conditions noted are these: time 60.0 min.
In series [11] the target is T2, Adrenergic receptor alpha-1 (Homo sapiens, UniProt P35348+P25100+P35368).
T2 sequence (P35348 whole entry): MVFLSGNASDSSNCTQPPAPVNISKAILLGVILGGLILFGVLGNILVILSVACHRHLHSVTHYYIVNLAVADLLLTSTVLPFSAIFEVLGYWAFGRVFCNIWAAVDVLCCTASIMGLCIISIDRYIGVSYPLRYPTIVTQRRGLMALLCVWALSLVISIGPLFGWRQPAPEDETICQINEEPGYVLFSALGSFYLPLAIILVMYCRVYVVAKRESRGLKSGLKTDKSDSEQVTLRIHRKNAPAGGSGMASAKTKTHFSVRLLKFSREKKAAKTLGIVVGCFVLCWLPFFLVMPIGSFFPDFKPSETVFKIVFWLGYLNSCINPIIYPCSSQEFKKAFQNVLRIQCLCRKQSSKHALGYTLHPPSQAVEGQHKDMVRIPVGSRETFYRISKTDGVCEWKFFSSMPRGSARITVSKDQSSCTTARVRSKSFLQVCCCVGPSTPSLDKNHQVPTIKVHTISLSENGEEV
T2 sequence (P25100 whole entry): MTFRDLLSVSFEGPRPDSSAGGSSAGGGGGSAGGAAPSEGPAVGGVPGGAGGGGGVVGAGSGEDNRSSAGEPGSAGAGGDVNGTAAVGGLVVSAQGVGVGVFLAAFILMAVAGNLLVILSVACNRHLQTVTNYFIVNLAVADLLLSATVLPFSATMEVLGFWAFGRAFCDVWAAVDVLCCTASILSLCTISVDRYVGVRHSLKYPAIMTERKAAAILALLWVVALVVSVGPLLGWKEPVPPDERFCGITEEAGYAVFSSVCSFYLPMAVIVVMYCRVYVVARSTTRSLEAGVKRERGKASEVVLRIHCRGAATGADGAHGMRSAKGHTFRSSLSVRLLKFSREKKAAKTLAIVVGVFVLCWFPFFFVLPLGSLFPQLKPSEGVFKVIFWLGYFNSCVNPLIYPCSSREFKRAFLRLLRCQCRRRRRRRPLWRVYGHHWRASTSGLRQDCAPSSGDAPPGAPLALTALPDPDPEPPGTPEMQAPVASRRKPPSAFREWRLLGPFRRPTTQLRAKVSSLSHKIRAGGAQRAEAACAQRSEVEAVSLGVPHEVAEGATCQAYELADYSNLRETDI
T2 sequence (P35368 whole entry): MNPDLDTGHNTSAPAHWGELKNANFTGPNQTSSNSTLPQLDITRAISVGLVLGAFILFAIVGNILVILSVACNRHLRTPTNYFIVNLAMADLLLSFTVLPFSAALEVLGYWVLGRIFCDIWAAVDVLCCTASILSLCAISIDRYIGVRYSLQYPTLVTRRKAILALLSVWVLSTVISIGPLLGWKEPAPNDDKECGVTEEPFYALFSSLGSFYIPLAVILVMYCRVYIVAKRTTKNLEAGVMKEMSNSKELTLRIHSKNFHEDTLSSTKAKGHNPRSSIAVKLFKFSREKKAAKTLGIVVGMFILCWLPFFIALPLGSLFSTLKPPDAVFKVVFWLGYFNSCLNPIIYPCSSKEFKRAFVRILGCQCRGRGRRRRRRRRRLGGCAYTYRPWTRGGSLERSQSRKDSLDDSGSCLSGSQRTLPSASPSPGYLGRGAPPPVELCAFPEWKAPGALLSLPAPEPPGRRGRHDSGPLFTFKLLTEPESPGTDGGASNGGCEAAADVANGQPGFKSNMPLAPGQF
The series can be described thus: Binding affinity to adrenergic alpha 1 receptor (unknown origin). It is filed as protein assay.

Series [12] deals with cAMP and cAMP-inhibited cGMP 3',5'-cyclic phosphodiesterase 10A (Homo sapiens, UniProt Q9Y233). The series can be described thus: Inhibition of PDE10A (unknown origin) preincubated for 20 mins followed by substrate addition and measured after 1 hr by PEDlight AMP detection reagent based luminescence assay.
cAMP and cAMP-inhibited cGMP 3',5'-cyclic phosphodiesterase 10A, sequence (Q9Y233 whole entry): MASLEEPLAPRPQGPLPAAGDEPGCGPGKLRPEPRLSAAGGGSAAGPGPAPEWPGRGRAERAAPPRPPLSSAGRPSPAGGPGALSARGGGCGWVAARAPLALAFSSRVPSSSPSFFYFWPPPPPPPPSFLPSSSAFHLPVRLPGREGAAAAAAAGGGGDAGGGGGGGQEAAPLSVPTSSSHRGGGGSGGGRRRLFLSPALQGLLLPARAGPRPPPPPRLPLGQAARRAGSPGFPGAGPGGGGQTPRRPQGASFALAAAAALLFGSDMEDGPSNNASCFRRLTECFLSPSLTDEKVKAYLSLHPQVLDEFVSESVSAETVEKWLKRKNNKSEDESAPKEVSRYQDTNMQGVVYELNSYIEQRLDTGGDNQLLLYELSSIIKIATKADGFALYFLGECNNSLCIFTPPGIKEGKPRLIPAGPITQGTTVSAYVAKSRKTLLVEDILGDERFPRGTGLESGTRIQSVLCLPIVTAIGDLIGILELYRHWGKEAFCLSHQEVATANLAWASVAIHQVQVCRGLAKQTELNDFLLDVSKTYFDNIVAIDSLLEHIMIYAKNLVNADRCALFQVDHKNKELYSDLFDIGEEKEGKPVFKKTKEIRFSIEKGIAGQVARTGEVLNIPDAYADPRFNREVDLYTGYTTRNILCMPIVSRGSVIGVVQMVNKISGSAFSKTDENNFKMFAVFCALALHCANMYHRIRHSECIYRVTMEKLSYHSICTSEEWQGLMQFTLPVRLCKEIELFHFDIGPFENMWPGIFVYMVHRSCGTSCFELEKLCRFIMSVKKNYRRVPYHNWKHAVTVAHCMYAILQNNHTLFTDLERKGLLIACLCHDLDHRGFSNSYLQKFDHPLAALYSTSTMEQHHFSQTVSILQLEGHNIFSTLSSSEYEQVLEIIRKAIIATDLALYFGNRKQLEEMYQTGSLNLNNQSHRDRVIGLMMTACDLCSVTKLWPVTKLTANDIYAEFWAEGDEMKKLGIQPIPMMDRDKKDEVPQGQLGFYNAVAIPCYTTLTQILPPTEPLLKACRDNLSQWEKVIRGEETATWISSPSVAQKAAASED
The target of another series is D(2) dopamine receptor (Homo sapiens, UniProt P14416). Kind of series: Binding affinity to dopamine D2 receptor (unknown origin).
D(2) dopamine receptor, sequence (P14416 whole entry): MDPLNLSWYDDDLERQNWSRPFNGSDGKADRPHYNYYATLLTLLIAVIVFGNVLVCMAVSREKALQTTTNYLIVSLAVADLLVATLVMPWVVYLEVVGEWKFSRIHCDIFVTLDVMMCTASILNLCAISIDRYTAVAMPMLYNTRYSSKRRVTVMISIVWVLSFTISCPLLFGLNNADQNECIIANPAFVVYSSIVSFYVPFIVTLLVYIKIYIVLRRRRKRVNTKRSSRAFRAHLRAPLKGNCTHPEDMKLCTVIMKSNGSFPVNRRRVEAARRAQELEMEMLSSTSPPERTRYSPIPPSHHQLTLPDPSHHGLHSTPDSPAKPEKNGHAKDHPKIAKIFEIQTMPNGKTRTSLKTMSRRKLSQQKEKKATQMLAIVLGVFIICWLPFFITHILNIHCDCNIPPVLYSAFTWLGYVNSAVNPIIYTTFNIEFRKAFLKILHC
Series [13] in a line: Aqueous solubility of compound in simulated gastric fluid by UV absorbance based analysis. It is filed as physicochemical.
Series [14] is described as follows: Metabolic stability in human liver microsomes assessed as intrinsic clearance.
Series [15] in a line: Ratio of drug concentration in frontal cortex to plasma in mouse at 0.625 mg/kg, ip by LC/ESI-MS/MS analysis. The format is ADME, organism-based. The following applies: frontal cortex and plasma.
Series [16] in a line: Aqueous solubility of compound in PBS buffer at pH 7.4 by UV absorbance based analysis. The format is physicochemical.

The structures appear in SMILES notation. Values after ≈ are worked out from the molar mass of the structure shown. Active and inactive are the calls of the source. No cut-off for these calls is given here.

5-hydroxytryptamine receptor 2A, sequence (P28223 whole entry): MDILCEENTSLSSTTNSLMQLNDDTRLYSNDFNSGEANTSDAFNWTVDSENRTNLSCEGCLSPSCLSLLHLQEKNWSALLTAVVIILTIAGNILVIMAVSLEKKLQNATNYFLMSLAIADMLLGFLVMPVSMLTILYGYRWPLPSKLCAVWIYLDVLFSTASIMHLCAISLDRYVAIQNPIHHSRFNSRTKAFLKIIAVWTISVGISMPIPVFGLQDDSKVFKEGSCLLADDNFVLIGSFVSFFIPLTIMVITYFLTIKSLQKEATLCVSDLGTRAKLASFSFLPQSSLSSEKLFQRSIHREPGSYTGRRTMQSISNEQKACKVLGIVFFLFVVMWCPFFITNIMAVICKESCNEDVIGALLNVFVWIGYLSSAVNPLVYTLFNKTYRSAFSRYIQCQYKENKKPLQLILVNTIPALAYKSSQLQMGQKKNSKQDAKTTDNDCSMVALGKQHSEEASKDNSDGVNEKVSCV
5-hydroxytryptamine receptor 7, sequence (P34969 whole entry): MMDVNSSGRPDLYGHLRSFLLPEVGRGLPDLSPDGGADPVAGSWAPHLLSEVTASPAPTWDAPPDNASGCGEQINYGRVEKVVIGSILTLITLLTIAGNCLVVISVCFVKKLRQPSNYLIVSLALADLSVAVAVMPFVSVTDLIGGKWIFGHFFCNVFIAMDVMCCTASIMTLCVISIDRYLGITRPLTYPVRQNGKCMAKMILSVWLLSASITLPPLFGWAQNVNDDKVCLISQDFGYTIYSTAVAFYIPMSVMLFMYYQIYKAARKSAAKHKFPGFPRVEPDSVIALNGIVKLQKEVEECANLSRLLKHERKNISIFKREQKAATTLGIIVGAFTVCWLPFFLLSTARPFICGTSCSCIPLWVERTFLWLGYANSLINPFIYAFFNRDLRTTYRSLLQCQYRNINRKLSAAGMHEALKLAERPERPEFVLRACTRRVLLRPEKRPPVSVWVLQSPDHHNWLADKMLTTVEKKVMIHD

As for `COc1cc2ncnc(N3CCC(CN4CCN(c5ccc(Cl)cc5)CC4)C3)c2cc1OC` (stereo not drawn), the Cmax in series [1] was found to be 330 ng/mL. The Papp A→B in [2] was 0.26 ×10⁻⁶ cm/s; in series [3], 0.05 ×10⁻⁶ cm/s. Moreover, the Kp came to 85.4 in [4] and 149 in series [15]. Moreover, the Ki in [5] is > 1000 nM; in [6], 363 nM; in series [7] it was 138 nM; at D(2) dopamine receptor, > 1000 nM. For the same compound, the exposure AUC(0-t) in [8] is 1060 ng·h/mL; in [10], 1820 ng·h/mL. In addition, the half-life in [9] came out at 49 min. Moreover, the outcome in the series on Mus musculus was Active. The pKi in series [11] is given as 6.11. The same compound had an IC50 in series [12] of 1700 nM. Moreover, the solubility was 196 µM (≈ 91.9 µg/mL) in [13] and 187 µM (≈ 87.5 µg/mL) in [16]. For the same compound, in series [14], the microsomal CLint is 75.8 µL/min/mg.

The values above are taken from ChEMBL document CHEMBL5143617 (Eur J Med Chem, 2022).
